Data on 14 substances can be found in PMC10699557, “A recombinant approach for stapled peptide discovery yields inhibitors of the RAD51 recombinase” (Chemical Science, 2023).

Where two headings read alike, the source gives them in different places. Numbered stars: 1 amine (or outer) side, 2 acyl side, 3 side chain; on linkers, the order of the positions; unused ones are H or OH. Bridge positions count the residues as written; N and C are the ends. Ends that are not written are not given here. X2 = CN(CC(=O)O)c1nc(CC[*:1])nc(CC[*:2])n1

Assay [1] concerns the target monomeric version of RAD51 (HumRadA22) (Pyrococcus furiosus, UniProt O74036). Kind of assay: Fluorescence polarisation (FP) competition assay: displacement of fluorescein-labelled BRC4 repeat. To be noted: 100 nM HumRadA22, 10 nM BRC4-fluorescein, KD calculated from IC50, single titration, three technical replicates per point. The class given is binding, archaeal RadA mutant with human Rad51 surface residues. The source says:
We prepared all stapled peptides from small-scale bacterial cultures as GB1/C-His8 fusions and cyclised them with the DVT linker. For peptides SP10, SP11, SP12 and SP15, correct stapling was confirmed by MS, showing a similar composition to SP2 (Fig. S15–S18 ^†). Thus, we confirm that the pseudo-dilution approach is robust in yielding almost exclusively the cyclised product, irrespective of whether a helical or non-helical motif is being constrained. To examine the effect of introducing a covalent staple on affinity, a mock reaction was done in parallel for each peptide by splitting the IMAC elution into two halves and adding DMSO to the mock control instead of the linker. TCEP (500 μM) was included in the mock reaction to maintain the peptide in linear form by preventing disulfide formation. The peptides were tested in a fluorescence polarisation (FP) assay monitoring the displacement of a fluorescently-labelled BRC4 repeat from a monomeric version of RAD51 (HumRadA22), as reported previously.[25] […]
Fluorescence polarisation competition assay
FP competition assay was a modified version of a protocol described previously. Fluorescein-labelled HsBRC4 probe for this assay was kindly provided by Dr Laurens Lindenburg (Hollfelder group, Department of Biochemistry, University of Cambridge). Black 384-well flat-bottom microplates (Corning, 3821) were used with a 40 μl final reaction volume in all measurements. Following buffer conditions were used: 20 mM CHES pH 9.5, 150 mM NaCl, 0.1% BSA, 0.1% Tween-20. Each reaction contained 100 nM HumRadA22 and 10 nM BRC4-fluorescein. Two-fold serial dilutions of stapled peptides were added to the reactions. A free probe control reaction containing only 10 nM BRC4-fluorescein was used to calibrate gain and focal height. FP measurements were performed on Pherastar FX or Clariostar Plus (BMG Labtech) plate readers equipped with an FP 485-520-520 optic modules. Binding curves were fitted using the four-parameter logistic model with a variable Hill slope using Prism software (Graphpad). Regression fitting was performed using the least squares optimisation algorithm.
KD values were estimated from the fitted IC 50 parameters using a previously reported

Assay [2] concerns RAD51:dT60 nucleoprotein filament (full-length human RAD51). Briefly: Electrophoretic mobility shift assay (EMSA) of nucleoprotein filament disruption. Format: biochemical. To be noted: 5 μM full-length human RAD51, 100 nM FAM-dT60, varying peptide concentrations; 50 mM HEPES pH 7.4, 1 mM ATP. As for the experimental part: We evaluated the effect of stapled peptides SP2, SP24 and SP30 on the nucleoprotein filament using electrophoretic mobility shift assay (EMSA, Fig. 3D). A fluorescently labelled dT60 oligonucleotide was incubated with full-length RAD51, after which the peptides were added at different concentrations before separating the products on a polyacrylamide gel.
Isothermal titration calorimetry
Peptides were resuspended in MilliQ water to 10 times the desired final concentration.
This was then diluted 10x with the ITC buffer to obtain the final titrant solution (20 mM CHES pH 9.5, 150 mM NaCl, 0.1% Tween-20). HumRadA22 was buffer-exchanged on a NAP-5 desalting column (Cytiva) into ITC buffer and protein concentration was adjusted to 10:9 of the desired final value. One ninth volume of MilliQ water was added to the solution to bring the protein concentration to the desired final value, while maintaining identical buffer:MilliQ volume proportions in both the syringe and the cell. ITC was carried out using a Microcal ITC200 or Malvern PEAQ ITC instruments at 25°C with a 5.00 μCal reference power DP value, stirring speed of 500-750 rpm, 2 sec filter period. Injection spacing, speed and volume, cell/syringe concentrations as well as the number of injections were adjusted for each peptide and its binding properties. ITC data were fitted using a single-site binding model using the Microcal ITC data analysis program in the Origin 7.0 package. Data points affected by baseline spikes were omitted from the analysis.
Circular dichroism spectroscopy
Dried peptides were dissolved in MilliQ water to 0.3 mg/ml, and then two-fold diluted in 20 mM sodium phosphate, pH 7.4, giving a final solution of 0.15 mg/ml peptide in 10 mM sodium phosphate. CD spectra of selected peptides were recorded on an AVIV 410 circular dichroism spectropolarimeter using a 1 mm path length quartz cuvette. […]
The ability of linear and stapled BRC repeat peptides to dissociate RAD51-ssDNA nucleofilament was evaluated using an electrophoretic mobility shift assay (EMSA). […]
(In general: In EMSA bound probe runs differently from free probe, usually more slowly.)

[3] abbreviates: stapled product (linker DVT or DVP as in Table 1), 20 mM CHES pH 9.5, 150 mM NaCl, 0.1% BSA, 0.1% Tween-20, read-out: FP competition KD, nM, Stapled.
Where [4] appears, read: unstapled linear form, mock reaction with DMSO instead of linker plus TCEP, 20 mM CHES pH 9.5, read-out: FP competition KD, nM, Unstapled.

By Kd is commonly meant the concentration at which binding is half-saturated. Take “ACGFSTASGKKLNVSCEALQKAVKLFSDIENIS (also: sidechain bridge or staple (positions not given here)) [GB1-SP10, GB1/C-His8 fusion peptide stapled with DVT; unstapled column is its linear mock control]”: the dissociation constant (Kd) in assay [1] (setting [3]) was 27 nM; in assay [1] (setting [4]), 35 nM.
For “ACSGFSTASGKKLNCS (also: sidechain bridge or staple (positions not given here)) [GB1-SP16, GB1/C-His8 fusion peptide stapled with DVT; unstapled column is its linear mock control]” the same measures were greater than 500 nM and greater than 500 nM.
On to “H-GSVNSSAFSGFSTASGKKLNVSCEALQKACKLFSDIENISGSS-OH (linker 23-30 via X2) [SP2]”, for which the “Depolymerisation of RAD51 from single-stranded DNA (EMSA)” value in assay [2] is reported as “depolymerise RAD51 from single-stranded DNA to similar extent”.
“SCEALQKACKLFSDIENIS (also: sidechain bridge or staple (positions not given here)) [GB1-SP1, GB1/C-His8 fusion peptide stapled with DVT; unstapled column is its linear mock control]”: the dissociation constant (Kd) in assay [1] (setting [3]) and in assay [1] (setting [4]) was greater than 500 nM throughout.
As to “SCFSTASGKKLNVSCEALQKAVKLFSDIENIS (also: sidechain bridge or staple (positions not given here)) [GB1-SP11, GB1/C-His8 fusion peptide stapled with DVT; unstapled column is its linear mock control]”, the Kd was 36 nM in assay [1] (setting [3]) and 29 nM in assay [1] (setting [4]).
The matching figures for “SSACSGFSTASGKKLNVSTEACQKAVKLFSDIENIS (also: sidechain bridge or staple (positions not given here)) [GB1-SP12, GB1/C-His8 fusion peptide stapled with DVT; unstapled column is its linear mock control]”: 14 nM and 50 nM.
For “VNCSAFSGFSTASGKKLCVS (also: sidechain bridge or staple (positions not given here)) [GB1-SP14, GB1/C-His8 fusion peptide stapled with DVT; unstapled column is its linear mock control]” the same measures were greater than 500 nM and greater than 500 nM.
In the case of “VNCSAFSGFSTASGKKLNVSTEALCKAVKLFSDIENIS (also: sidechain bridge or staple (positions not given here)) [GB1-SP13, GB1/C-His8 fusion peptide stapled with DVT; unstapled column is its linear mock control]”, the values for the Kd in assay [1] (setting [3]) and in assay [1] (setting [4]) were 28 nM and 21 nM, respectively.
On to “VNSSAFSGFCTASGKKLNVSCEALQKAVKLFSDIENIS (also: sidechain bridge or staple (positions not given here)) [GB1-SP7, negative control GB1/C-His8 fusion peptide stapled with DVT; unstapled column is its linear mock control]”, for which the equilibrium dissociation constant (Kd) in assay [1] (setting [4]) is 39 nM.
Turning to “VNSSAFSGFSTASGKKLNVSCEALQKACKLFSDIECIS (also: sidechain bridge or staple (positions not given here)) [GB1-SP15, GB1/C-His8 fusion peptide stapled with DVT; unstapled column is its linear mock control]”, the figures for the dissociation constant (Kd) in assay [1] (setting [3]) and in assay [1] (setting [4]) were 13 nM and 15 nM, respectively.
In the case of “VNSSAFSGFSTASGKKLNVSCEALQKACKLFSDIENIS (also: sidechain bridge or staple (positions not given here)) [GB1-SP2, GB1/C-His8 fusion peptide stapled with DVT; unstapled column is its linear mock control]”, the figures for the dissociation constant Kd in assay [1] (setting [3]) and in assay [1] (setting [4]) were 15 nM and 6 nM, respectively.
For “VNSSAFSGFSTASGKKLNVSTCALQKAVCLFSDIENIS (also: sidechain bridge or staple (positions not given here)) [GB1-SP8, GB1/C-His8 fusion peptide stapled with DVT; unstapled column is its linear mock control]” the same measures were 29 nM and 45 nM.
The matching figures for “VNSSAFSGFSTASGKKLNVSTEALCKAVKLFCDIENIS (also: sidechain bridge or staple (positions not given here)) [GB1-SP9, GB1/C-His8 fusion peptide stapled with DVT; unstapled column is its linear mock control]”: 51 nM and 57 nM.
As to “VNSSAFSGFSTASGKKLNVSTEALQKAVKLFSDIENIS [GB1-BRC8-2, linear BRC8-2 template as GB1/C-His8 fusion]”, the dissociation constant (Kd) in assay [1] (setting [4]) was 11 nM.
